Where a name gives a salt, the structure may show the parent alone. Read-outs that look alike come from different tables or passages of the source.
What was measured:
ALDH1A2 [1] = target: T1, ALDH1A2 (Homo sapiens, UniProt O94788); assay: Inhibitor screening using purified enzymes: ALDH1A2 activity, retinoic acid production by HPLC (5 uM initial screen, then IC50); format: biochemical; design: histidine-tag (C); made in house; host or cells: bacterial expression (pET28 vector, IPTG induction); conditions: purified enzyme
T1 sequence (O94788 1-518): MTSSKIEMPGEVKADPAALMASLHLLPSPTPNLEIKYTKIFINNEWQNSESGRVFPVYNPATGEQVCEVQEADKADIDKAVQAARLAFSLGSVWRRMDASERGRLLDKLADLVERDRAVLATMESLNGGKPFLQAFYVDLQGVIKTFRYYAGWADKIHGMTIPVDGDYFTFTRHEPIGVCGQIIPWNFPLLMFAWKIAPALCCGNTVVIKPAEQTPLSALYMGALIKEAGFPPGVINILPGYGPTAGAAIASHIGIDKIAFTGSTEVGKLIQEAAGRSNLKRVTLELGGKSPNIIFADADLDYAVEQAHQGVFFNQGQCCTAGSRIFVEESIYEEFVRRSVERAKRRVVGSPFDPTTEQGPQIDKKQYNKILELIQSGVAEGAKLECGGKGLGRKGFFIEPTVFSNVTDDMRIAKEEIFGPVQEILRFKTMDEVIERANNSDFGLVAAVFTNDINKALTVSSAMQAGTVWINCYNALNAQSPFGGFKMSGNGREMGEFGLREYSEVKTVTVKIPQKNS
In short: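 Purified His-tagged human enzymes in 10 mM HEPES pH 8.0, 150 mM KCl, 2 mM EDTA with 2 mM NAD, all-trans-retinal substrate; retinoic acid quantified by HPLC. ALDH1A2 initial screen: 1 μg enzyme, 5 μM retinal, 5 μM inhibitor, 15 min, 37° C; IC50 runs: 0.5 μg enzyme, 0.5 μg retinal, 5 min, 37° C.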

ALDH1A2 [2] = target: T1, ALDH1A2; assay: Cell-based enzyme assay, retinoic acid production in ALDH1A2/H1299 cells
In short: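 ALDH1A1- or ALDH1A2-stably transfected H1299 cells grown to confluence, then treated 20 h in serum-free RPMI-1640 with 2 μM all-trans-retinal plus varying inhibitor concentrations at 37 °C. Retinoic acid in cells and media quantified; inhibition from RA levels with vs without inhibitor.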

Row | Compound | IC50 (ALDH1A2 [1]) [µM] | EC50 (ALDH1A2 [2]) [µM] | EC50 (ALDH1A2 [2]; cell-based) [µM]
1 | CCc1ccc(C(=O)N2CCN(c3ccc([N+](=O)[O-])c(N4CCCC4)c3)CC2)s1 [Compound 323, {4-[4-Nitro-3-(pyrrolidin-1-yl)phenyl]piperazin-1-yl}(5-ethylthiophen-2-yl)methanone] | 0.103 | 0.457 | –
2 | 3-(4-Acryloylphenyl)-1-phenyl-1H-pyrazole-4-carbaldehyde [Compound 309] | 0.005 | – | 0.87
3 | O=Cc1cn(-c2ccccc2)nc1-c1ccc(O)cc1 [Cmpd 34] | 1.73 | – | 0.798
4 | CCS(=O)(=O)c1ccc(-c2nn(-c3ccccc3)cc2C(=O)Nc2cccc(F)c2)cc1 [Compound 223, 3-(4-(Ethylsulfonyl)phenyl)-N-(3-fluorophenyl)-1-phenyl-1H-pyrazole-4-carboxamide] | 0.208 | – | 0.088
5 | N#Cc1ccc(-n2cc(C(=O)Nc3cccc(F)c3)c(-c3ccc(NC(=O)C(Cl)Cl)cc3)n2)cc1 [Compound 316a, 3-(4-Dichloroacetamidophenyll)-N-(3-fluorophenyl)-1-(4-cyanophenyl)-1H-pyrazole-4-carboxamide] | 0.037 | – | 0.013
6 | CS(=O)(=O)c1ccc(-c2nn(-c3ccccc3)cc2C(=O)Nc2cccc(F)c2O)cc1 [Compound 231, N-(3-Fluoro-2-hydroxyphenyl)-3-[4-(methylsulfonyl)phenyl]-1-phenyl-1H-pyrazole-4-carboxamide] | 0.323 | – | 0.069
7 | CS(=O)(=O)c1ccc(-c2nn(-c3ccc(OC(F)(F)F)cc3)cc2C(=O)Nc2cccc(F)c2)cc1 [Compound 258, N-(3-Fluorophenyl)-1-(4-trifluoromethoxypheny)-3-[4-(methylsulfonyl)phenyl]-1H-pyrazole-4-carboxamide] | 0.112 | – | 0.051
8 | CS(=O)(=O)c1ccc(-c2nn(-c3cccc(C#N)c3)cc2C(=O)Nc2cccc(F)c2)cc1 [Compound 268, 1-(3-Cyanophenyl)-N-(3-fluorophenyl)-3-[4-(methylsulfonyl)phenyl]-1H-pyrazole-4-carboxamide] | 0.84 | – | 0.026
9 | CS(=O)(=O)c1ccc(-c2nn(-c3cccc(C#N)c3)cc2C(=O)Nc2ccc(F)c(F)c2)cc1 [Compound 269, 1-(3-Cyanophenyl)-N-(3,4-difluorophenyl)-3-[4-(methylsulfonyl)phenyl]-1H-pyrazole-4-carboxamide] | 0.238 | – | 0.045
10 | CCOc1ccsc1C(=O)N1CCN(c2ccc([N+](=O)[O-])c(N3CCCC3)c2)CC1 [Compound 326, {4-[4-Nitro-3-(pyrrolidin-1-yl)phenyl]piperazin-1-yl}(3-ethoxythiophen-2-yl)methanone] | 0.058 | 0.11 | –
11 | CS(=O)(=O)c1ccc(-c2nn(-c3ccc(Cl)cc3)cc2C(=O)Nc2ccccc2O)cc1 [Compound 233, N-(2-Hydroxyphenyl)-3-[4-(methylsulfonyl)phenyl]-1-(4-chloropheny)-1H-pyrazole-4-carboxamide] | 0.795 | – | 0.055
12 | CS(=O)(=O)c1ccc(-c2nn(-c3ccccc3)cc2C(=O)Nc2cccc(Cl)c2)cc1 [Compound 219, 3-(4-(Methylsulfonyl)phenyl)-N-(3-chlorophenyl)-1-phenyl-1H-pyrazole-4-carboxamide] | 0.606 | – | 0.11
13 | CS(=O)(=O)c1ccc(-c2nn(-c3cccc(F)c3)cc2C(=O)Nc2cccc(C(F)(F)F)c2)cc1 [Compound 266, 1-(3-Fluorophenyl)-N-(3-trifluoromethylphenyl)-3-[4-(methylsulfonyl)phenyl]-1H-pyrazole-4-carboxamide] | 0.029 | – | 0.354
14 | CS(=O)(=O)c1ccc(-c2nn(-c3ccccc3)cc2C(=O)Nc2cccc(F)c2)cc1 [Compound 178, 3-(4-(Methylsulfonyl)phenyl)-N-(3-fluorophenyl)-1-phenyl-1H-pyrazole-4-carboxamide] | 0.192 | – | 0.065
15 | CS(=O)(=O)c1ccc(-c2nn(-c3ccc(F)cc3)cc2C(=O)Nc2cccc(F)c2)cc1 [Compound 241, N-(3-Fluorophenyl)-3-[4-(methylsulfonyl)phenyl]-1-(4-fluorophenyl)-1H-pyrazole-4-carboxamide] | 0.092 | – | 0.056
16 | CS(=O)(=O)c1ccc(-c2nn(-c3ccccc3)cc2C(=O)Nc2cccc(O)c2)cc1 [Compound 211, 3-(4-(Methylsulfonyl)phenyl)-N-(3-hydroxyphenyl)-1-phenyl-1H-pyrazole-4-carboxamide] | 0.081 | – | 0.12
17 | CS(=O)(=O)c1ccc(-c2nn(-c3ccc(C#N)cc3)cc2C(=O)Nc2cccc(C(F)(F)F)c2)cc1 [Compound 262, 1-(4-Cyanophenyl)-N-(3-trifluoromethylphenyl)-3-[4-(methylsulfonyl)phenyl]-1H-pyrazole-4-carboxamide] | 0.352 | – | 0.016

The next lines start with the values.

Row | IC50 (ALDH1A2 [1]) [µM] | EC50 (ALDH1A2 [2]) [µM] | EC50 (ALDH1A2 [2]; cell-based) [µM] | Compound
18 | 4.56 | 0.966 | – | O=C(c1ccc(Cl)cc1)N1CCN(c2ccc([N+](=O)[O-])c(N3CCCC3)c2)CC1 [Compound 342, 4-Chlorophenyl-1-{4-[4-nitro-3-(pyrrolidin-1-yl)phenyl]piperazin-1-yl}methanone]
19 | 2.3 | > 5 | – | Cn1cccc1C(=O)N1CCN(c2ccc(NC(=O)C(Cl)Cl)c(N3CCCC3)c2)CC1 [Compound 367, 1-[4-(4-N-Dichloroacetyl-3-(pyrrolidin-1-yl)phenyl]piperazin-1-yl](1-methyl-1H-pyrrol-2-yl)methanone]
20 | 1.94 | < 0.5 | – | Cn1cccc1C(=O)N1CCN(c2ccc([N+](=O)[O-])c(N3CCCC3)c2)CC1 [Compound 343, [4-(4-Nitro-3-(pyrrolidin-1-yl)phenyl)piperazin-1-yl](1-methyl-1H-pyrrol-2-yl)methanone]
21 | 1.45 | 0.505 | – | O=C(c1cccc(Cl)c1)N1CCN(c2ccc([N+](=O)[O-])c(N3CCCC3)c2)CC1 [Compound 341, 3-Chlorophenyl-1-{4-[4-nitro-3-(pyrrolidin-1-yl)phenyl]piperazin-1-yl}methanone]
22 | 0.313 | 0.862 | – | Cc1cc(C(=O)N2CCN(c3ccc([N+](=O)[O-])c(N4CCCC4)c3)CC2)sc1C [Compound 327, {4-[4-Nitro-3-(pyrrolidin-1-yl)phenyl]piperazin-1-yl}(4,5-dimethylthiophen-2-yl)methanone]
23 | 2.13 | 0.88 | – | Cn1cccc1C(=O)N1CCN(c2ccc(-c3ccc([N+](=O)[O-])cc3)c(N3CCCCC3)c2)CC1 [Compound 373]
24 | 0.042 | 0.35 | – | CC(=O)n1cccc1C(=O)N1CCN(c2ccc([N+](=O)[O-])c(N3CCCC3)c2)CC1 [Compound 347, {4-[4-Nitro-3-(pyrrolidin-1-yl)phenyl]piperazin-1-yl}(1-acetyl-pyrrol-2yl)methanone]
25 | 3.6 | 0.7 | – | Cn1cccc1C(=O)N1CCN(c2ccc(NC(=O)CCl)c(N3CCCC3)c2)CC1 [Compound 372, 1-[4-(4-N-Chloroacetyl-3-(pyrrolidin-1-yl)phenyl]piperazin-1-yl](1-methyl-1H-pyrrol-2-yl)methanone]
26 | 0.062 | 0.121 | – | Nc1ccsc1C(=O)N1CCN(c2ccc([N+](=O)[O-])c(N3CCCC3)c2)CC1 [Compound 331, {4-[4-Nitro-3-(pyrrolidin-1-yl)phenyl]piperazin-1-yl}(3-aminothiophen-2-yl)methanone hydrochloride]
27 | 1.33 | 0.377 | – | O=C(c1ccc(F)s1)N1CCN(c2ccc([N+](=O)[O-])c(N3CCCC3)c2)CC1 [Compound 334, {4-[4-Nitro-3-(pyrrolidin-1-yl)phenyl]piperazin-1-yl}(5-fluorothiophen-2-yl)methanone]
28 | 0.079 | < 0.5 | – | COc1ccsc1C(=O)N1CCN(c2ccc([N+](=O)[O-])c(N3CCCC3)c2)CC1 [Compound 329, {4-[4-Nitro-3-(pyrrolidin-1-yl)phenyl]piperazin-1-yl}(3-methoxythiophen-2-yl)methanone]
29 | 0.837 | 0.293 | – | O=C(c1ccccc1)N1CCN(c2ccc([N+](=O)[O-])c(N3CCCC3)c2)CC1 [Compound 339, Phenyl-1-{4-[4-nitro-3-(pyrrolidin-1-yl)phenyl]piperazin-1-yl}methanone]
30 | 0.388 | 0.437 | – | CC(=O)Nc1ccsc1C(=O)N1CCN(c2ccc([N+](=O)[O-])c(N3CCCC3)c2)CC1 [Compound 332]
31 | 0.264 | < 0.5 | – | O=C(c1ccc[nH]1)N1CCN(c2ccc([N+](=O)[O-])c(N3CCCC3)c2)CC1 [Compound 344, {4-[4-Nitro-3-(pyrrolidin-1-yl)phenyl]piperazin-1-yl}(1H-pyrrol-2-yl)methanone]

Source: patent US11548875B2, “Inhibitor compounds for male contraception” (University of Washington, priority 2018, dated 2023)
